Like-named read-outs stand apart in the source and are kept apart here.
Experiments:
[1] = test system: primary human fibroblasts from patients with Leigh syndrome; assay: Oxidative stress-induced cell death (BSO) assay, Leigh patient fibroblasts; type: cell-based
Excerpt: (§1) To determine the effective concentration of the compounds (the concentrations that protect patient cells against oxidative stress-induced cell death) the applicant established an assay using stressed primary human fibroblasts from patients with Leigh syndrome, MELAS or LHON diseases. Utilising the inherent oxidative stress of fibroblasts from patients with mitochondrial disease, their oxidative burden was further increased by depleting cellular glutathione with an inhibitor of glutathione synthesis, L-buthionine-(S,R)-sulfoximine (BSO). […] Cells were seeded at a density of 3000 cells/well in a 96-well format and incubated with increasing concentrations of compounds in combination with BSO (100 μM, Sigma-aldrich). One day after treatment, the cells were washed twice and stained with a solution of 5 μM calcein-AM (Life technologies C3100MP) during 25 min in 199 medium without phenol red (Life technologies, 11043-023) at room temperature. After 2 washes with PBS (Phosphate buffered saline) the plate was read on a fluorescence plate reader (Fluostar Omega, BMG labtech) and the percentage of cell viability determined as a function of fluorescence intensity.

[2] = test system: primary human fibroblasts from patients with MELAS; assay: Oxidative stress-induced cell death (BSO) assay, MELAS patient fibroblasts; type: cell-based; conditions: fibroblasts derived from MELAS patients, 100 μM BSO; read-out: EC50, protection from oxidative stress-induced cell death
Excerpt: as §1

[3] = SAD study pharmacokinetic analysis; type: in vivo, human
Experimental: (§2) Dose escalation to the next dose level was done after evaluation of the safety and the first 24-hour pharmacokinetic results of the previous dose. […] Anticipated exposures at this starting dose were just below the Minimum Anticipated Biological Effect Level (MABEL). Placebo (an in taste and appearance matching oral liquid) was also administered orally on one occasion in the single-ascending dose part and b.i.d. for 7 Days in the MAD part. […] All samples were stored at <-70° C. until analysis. […] For mean value calculations, all values below the limit of quantification (LOQ) were set to zero. […] The non-compartmental pharmacokinetic analysis was performed using Phoenix, Version 6.3 (Pharsight Corporation, Mountain View, Calif., USA). […] The PK parameters were calculated on the basis of the actual blood sampling time points relative to dosing. Selected pharmacokinetic parameters (Cmax, tmax, t1/2, AUClast and AUC0-int) following single-dose administration and selected pharmacokinetic parameters Cmax, tmax, [NT], the accumulation factor (Racc) and time to reach steady state) following multiple dose administration were determined. In urine, the percentage of dose excreted in urine was determined for the single- and multiple-dose administration.

[4] = test system: primary human fibroblasts from patients with LHON; assay: Oxidative stress-induced cell death (BSO) assay, LHON patient fibroblasts; type: cell-based; conditions: fibroblasts derived from LHON patients, 100 μM BSO; read-out: EC50, protection from oxidative stress-induced cell death
Excerpt: as §1

[5] = MAD study pharmacokinetic analysis; type: in vivo, human; conditions: for AUCtau (Geomean) / Cmax (Geomean) / tmax* (median) / Racc (accumulation ratio, Geomean): MAD
Experimental: as §2

With `COC1=C(OC)C(=O)C(CCCCCCCCCCO)=C(C)C1=O` [Idebenone, reference compound] the EC50 ([1]; Homo sapiens, in vitro fibroblast assays (Redox assay), fibroblast type not given, values match Leigh, read-out: EC50) was 1470 nM.

For `CC1=C(C)C(=O)C(CC[C@](C)(O)C(=O)N[C@@H]2CCCNC2)=C(C)C1=O` [KH176m], the EC50 [2] was 14 nM, the “AUC0-inf ratio (fed/fasted), 90% CI” value ([3]; 100 mg, fed versus fasted) was 0.90 (90% Cl 0.57-1.41) and the “AUC0-inf (Geomean)” value ([3]; SAD, KH176 10 mg, fasted) was 234 ng·h/mL. The “AUClast (Geomean)” value ([3]; SAD, KH176 10 mg, fasted) was 151 ng·h/mL, the “Cmax (Geomean)” value ([3]; SAD, KH176 10 mg, fasted) was 14.2 ng/mL and the “t1/2 (Geomean)” value ([3]; SAD, KH176 10 mg, fasted) was 16.6 h. For the same compound, the “tmax* (median)” value ([3]; SAD, KH176 10 mg, fasted) was 1.25 h, the “AUC0-inf (Geomean)” value ([3]; SAD, KH176 30 mg, fasted) was 881 ng·h/mL and the “AUClast (Geomean)” value ([3]; SAD, KH176 30 mg, fasted) was 547 ng·h/mL. The “Cmax (Geomean)” value ([3]; SAD, KH176 30 mg, fasted) was 49.4 ng/mL, the “t1/2 (Geomean)” value ([3]; SAD, KH176 30 mg, fasted) was 17.8 h and the “tmax* (median)” value ([3]; SAD, KH176 30 mg, fasted) was 1.50 h. For the same compound, the “AUC0-inf (Geomean)” value ([3]; SAD, KH176 100 mg, fasted) was 2690 ng·h/mL, the “AUClast (Geomean)” value ([3]; SAD, KH176 100 mg, fasted) was 1810 ng·h/mL and the “Cmax (Geomean)” value ([3]; SAD, KH176 100 mg, fasted) was 168 ng/mL. For the same compound, the “t1/2 (Geomean)” value ([3]; SAD, KH176 100 mg, fasted) was 15.4 h, the “tmax* (median)” value ([3]; SAD, KH176 100 mg, fasted) was 1.25 h and the “AUC0-inf (Geomean)” value ([3]; SAD, KH176 100 mg, fed) was 2410 ng·h/mL. The “AUClast (Geomean)” value ([3]; SAD, KH176 100 mg, fed) was 1590 ng·h/mL, the “Cmax (Geomean)” value ([3]; SAD, KH176 100 mg, fed) was 117 ng/mL and the “t1/2 (Geomean)” value ([3]; SAD, KH176 100 mg, fed) was 14.9 h. For the same compound, the “tmax* (median)” value ([3]; SAD, KH176 100 mg, fed) was 2.50 h, the “AUC0-inf (Geomean)” value ([3]; SAD, KH176 300 mg, fasted) was 6890 ng·h/mL and the “AUClast (Geomean)” value ([3]; SAD, KH176 300 mg, fasted) was 4830 ng·h/mL. For the same compound, the “Cmax (Geomean)” value ([3]; SAD, KH176 300 mg, fasted) was 497 ng/mL, the “t1/2 (Geomean)” value ([3]; SAD, KH176 300 mg, fasted) was 14.3 h and the “tmax* (median)” value ([3]; SAD, KH176 300 mg, fasted) was 1.24 h. The “AUC0-inf (Geomean)” value ([3]; SAD, KH176 800 mg, fasted) was 18700 ng·h/mL, the “AUClast (Geomean)” value ([3]; SAD, KH176 800 mg, fasted) was 11700 ng·h/mL and the “Cmax (Geomean)” value ([3]; SAD, KH176 800 mg, fasted) was 1100 ng/mL. For the same compound, the “t1/2 (Geomean)” value ([3]; SAD, KH176 800 mg, fasted) was 17.2 h, the “tmax* (median)” value ([3]; SAD, KH176 800 mg, fasted) was 1.50 h and the “AUC0-inf (Geomean)” value ([3]; SAD, KH176 2000 mg, fasted) was 41300 ng·h/mL. For the same compound, the “AUClast (Geomean)” value ([3]; SAD, KH176 2000 mg, fasted) was 23900 ng·h/mL, the “Cmax (Geomean)” value ([3]; SAD, KH176 2000 mg, fasted) was 1780 ng/mL and the “t1/2 (Geomean)” value ([3]; SAD, KH176 2000 mg, fasted) was 18.9 h. For the same compound, the “tmax* (median)” value ([3]; SAD, KH176 2000 mg, fasted) was 1.75 h, the t1/2 ([3]; SAD, approximate, across dose groups) was “approximately 16 h” and the median tmax ([3]; fasted condition (100 mg)) was “approximately 1 h”. For the same compound, the median tmax ([3]; fed condition (100 mg, high calorie/high fat breakfast)) was 2.5 h, the EC50 ([1]; fibroblasts derived from Leigh patients, 100 μM BSO, one day, calcein-AM viability, read-out: EC50 (half maximum effective concentration), protection from oxidative stress-induced cell death) was 16 nM and the “EC50 expressed in ng/mL” value ([1]; in vitro fibroblast assays (Redox assay), fibroblast type not given, values match Leigh) was “around 5.8 ng/mL”. The EC50 ([1]; in vitro fibroblast assays (Redox assay), fibroblast type not given, values match Leigh, read-out: EC50) was 16 nM, the EC50 [4] was 4 nM and the “AUCtau (Geomean)” value ([5]; KH176 100 mg b.i.d, Day 1) was 702 ng·h/mL. For the same compound, the “Cmax (Geomean)” value ([5]; KH176 100 mg b.i.d, Day 1) was 99.4 ng/mL, the “tmax* (median)” value ([5]; KH176 100 mg b.i.d, Day 1) was 1.50 h and the “AUCtau (Geomean)” value ([5]; KH176 100 mg b.i.d, Day 7) was 1310 ng·h/mL. For the same compound, the “Cmax (Geomean)” value ([5]; KH176 100 mg b.i.d, Day 7) was 152 ng/mL, the “Racc (accumulation ratio, Geomean)” value ([5]; KH176 100 mg b.i.d, Day 7) was 1.86 and the “tmax* (median)” value ([5]; KH176 100 mg b.i.d, Day 7) was 1.00 h. For the same compound, the “AUCtau (Geomean)” value ([5]; KH176 200 mg b.i.d, Day 1) was 1680 ng·h/mL, the “Cmax (Geomean)” value ([5]; KH176 200 mg b.i.d, Day 1) was 251 ng/mL and the “tmax* (median)” value ([5]; KH176 200 mg b.i.d, Day 1) was 1.75 h. For the same compound, the “AUCtau (Geomean)” value ([5]; KH176 200 mg b.i.d, Day 7) was 2220 ng·h/mL, the “Cmax (Geomean)” value ([5]; KH176 200 mg b.i.d, Day 7) was 250 ng/mL and the “Racc (accumulation ratio, Geomean)” value ([5]; KH176 200 mg b.i.d, Day 7) was 1.32. The “tmax* (median)” value ([5]; KH176 200 mg b.i.d, Day 7) was 1.50 h, the “AUCtau (Geomean)” value ([5]; KH176 400 mg b.i.d, Day 1) was 3600 ng·h/mL and the “Cmax (Geomean)” value ([5]; KH176 400 mg b.i.d, Day 1) was 550 ng/mL. The “tmax* (median)” value ([5]; KH176 400 mg b.i.d, Day 1) was 1.25 h, the “AUCtau (Geomean)” value ([5]; KH176 400 mg b.i.d, Day 7) was 4270 ng·h/mL and the “Cmax (Geomean)” value ([5]; KH176 400 mg b.i.d, Day 7) was 450 ng/mL. For the same compound, the “Racc (accumulation ratio, Geomean)” value ([5]; KH176 400 mg b.i.d, Day 7) was 1.19, the “tmax* (median)” value ([5]; KH176 400 mg b.i.d, Day 7) was 1.50 h and the “AUCtau (one dosing interval, 12 hours), range” value ([5]; steady state, 100 mg BID) was 851 to 1570 ng·h/mL. The “average concentrations, range” value ([5]; steady state, 100 mg BID) was 70.9 to 130.8 ng/mL and the “maximum concentration, range” value ([5]; steady state, 100 mg BID, healthy subjects) was 89.4 to 204 ng/mL.

— patent US11285130B2, “Treatment of mitochondrial diseases” (Khondrion IP B.V., priority 2017, dated 2022)
